Literature values, collected in patent publication US8614236B2 (University of Washington, priority 2006, dated 2013).

How the values were obtained:
Beagle dogs = details: iv 10 mg·kg^−1·h^−1; Höhne 2004; cited from earlier work
humans = details: 250 mg tid; Balanos et al. abstract 2006; cited from earlier work

CC(=O)Nc1nnc(S(N)(=O)=O)s1 [AZ, acetazolamide]
effect on HPV in conscious dogs (Beagle dogs): totally abolished
reduction of HPV in humans (humans): 50%
